The supplement of paper PMC11451515

Assays:
[1] = tested on: NOMO1; assay: AUC of viability dose-response curve (% viability x log10 dose units); higher = less sensitive; conditions: 48 h
Method in brief: (§1)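 Viability of medium-adapted leukemia cells was measured by CellTiter-Glo One luminescence after 48 h at 37°C with library compounds in DMSO. Doses were 11 threefold steps from 47 μM to 0.79 nM, in 1536-well plates at 500 or 1000 cells/well. Signals were normalised per plate to DMSO and cell-free wells and fitted with a four-parameter log-logistic model on log10 dose. Area under the curve was integrated by trapezoidal rule, with curves exceeding full viability scaled and failed quality-control curves removed.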

[2] = tested on: P12-Ichikawa; assay: as above; conditions: 48 h
Method in brief: as §1

[3] = tested on: SEM cells; assay: as above; conditions: 48 h
Method in brief: as §1

[4] = tested on: NOMO1; assay: cell viability relative to DMSO control; higher = less cytotoxic; conditions: 48 h
Method in brief: (§2)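 In 1536-well plates, 5 μl of leukemia cells were seeded per well: 500 cells/well for NOMO1 or SEM and 1000 cells/well for P12-Ichikawa. Each line had first been adapted for at least four passages in each medium. Library compounds in DMSO were pin-dosed at 11 threefold concentrations between 47 μM and 0.79 nM, and CellTiter-Glo One luminescence was read after 48 h at 37°C. Viability is a per-plate percentage relative to DMSO wells, with cell-free wells as background.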

[5] = tested on: P12-Ichikawa; assay: as above; conditions: HPLM + 10% dialyzed FBS, 48 h
Method in brief: as §2

[6] = tested on: SEM cells; assay: as above; conditions: 48 h
Method in brief: as §2

CC(/C=C1\SC(=S)N(CC(=O)O)C1=O)=C\c1ccccc1
AUC of viability dose-response curve
Conditions | [1] | [2] | [3]
HPLM + 10% dialyzed FBS | 452 | 461 | 471
RPMI 5 mM glucose + 10% FBS | 454 | 440 | 420
RPMI 5 mM glucose + 10% dialyzed FBS | 472 | 457 | 476

C[C@H]1CC2C3CCC/4=C/C(=O)/C=C\[C@]4(C)[C@@]3(F)[C@@H](O)C[C@]2(C)[C@@]1(O)C(=O)CO (some centres undefined)
AUC of viability dose-response curve
Conditions | [1] | [2] | [3]
HPLM + 10% dialyzed FBS | 420 | 374 | 372
RPMI 5 mM glucose + 10% FBS | 450 | 342 | 356
RPMI 5 mM glucose + 10% dialyzed FBS | 466 | 330 | 348

CC[C@H](NC(=O)[C@H](C)NC)C(=O)N1C[C@@H](O)C[C@H]1Cc1c(-c2[nH]c3cc(F)ccc3c2C[C@@H]2C[C@H](O)CN2C(=O)[C@H](CC)NC(=O)[C@H](C)NC)[nH]c2cc(F)ccc12
cell viability [%]
Conditions | [4] | [6]
HPLM + 10% dialyzed FBS, 0.000781 µM | 113 | 90.7
HPLM + 10% dialyzed FBS, 0.00234 µM | 112 | 122
HPLM + 10% dialyzed FBS, 0.00702 µM | 123 | 116
HPLM + 10% dialyzed FBS, 0.0211 µM | 114 | 116
HPLM + 10% dialyzed FBS, 0.0632 µM | 126 | 136
HPLM + 10% dialyzed FBS, 0.19 µM | 110 | 134
HPLM + 10% dialyzed FBS, 0.569 µM | 89.9 | 129
HPLM + 10% dialyzed FBS, 1.71 µM | 67.3 | 134
HPLM + 10% dialyzed FBS, 5.12 µM | 22.6 | 112
HPLM + 10% dialyzed FBS, 15.4 µM | 20.3 | 119
HPLM + 10% dialyzed FBS, 46.1 µM | 21.8 | 88.2
RPMI 5 mM glucose + 10% dialyzed FBS, 0.000781 µM | 113 | –
RPMI 5 mM glucose + 10% dialyzed FBS, 0.00234 µM | 122 | –
RPMI 5 mM glucose + 10% dialyzed FBS, 0.00702 µM | 145 | –
RPMI 5 mM glucose + 10% dialyzed FBS, 0.0211 µM | 150 | –
RPMI 5 mM glucose + 10% dialyzed FBS, 0.0632 µM | 150 | –
RPMI 5 mM glucose + 10% dialyzed FBS, 0.19 µM | 128 | –
RPMI 5 mM glucose + 10% dialyzed FBS, 0.569 µM | 115 | –
RPMI 5 mM glucose + 10% dialyzed FBS, 1.71 µM | 106 | –
RPMI 5 mM glucose + 10% dialyzed FBS, 5.12 µM | 17.3 | –
RPMI 5 mM glucose + 10% dialyzed FBS, 15.4 µM | 16.2 | –
RPMI 5 mM glucose + 10% dialyzed FBS, 46.1 µM | 12.5 | –

Conditions | AUC of viability dose-response curve | cell viability [%]
[1], HPLM + 10% dialyzed FBS | 347 | –
[1], RPMI 5 mM glucose + 10% FBS | 323 | –
[1], RPMI 5 mM glucose + 10% dialyzed FBS | 362 | –
[3], HPLM + 10% dialyzed FBS | 469 | –
[3], RPMI 5 mM glucose + 10% FBS | 442 | –
[3], RPMI 5 mM glucose + 10% dialyzed FBS | 437 | –
[5], 0.000781 µM | – | 115
[5], 0.00234 µM | – | 129
[5], 0.00702 µM | – | 124
[5], 0.0211 µM | – | 137
[5], 0.0632 µM | – | 137
[5], 0.19 µM | – | 125
[5], 0.569 µM | – | 139
[5], 1.71 µM | – | 131
[5], 5.12 µM | – | 32.8
[5], 15.4 µM | – | 31.3
[5], 46.1 µM | – | 110

CCO[C@@H]1OC(=O)C[C@@H]1NC(=O)[C@@H]1CCCN1C(=O)[C@@H](NC(=O)c1ccc(N)c(Cl)c1)C(C)(C)C
cell viability [%], [6]
Conditions | HPLM + 10% dialyzed FBS | RPMI 5 mM glucose + 10% dialyzed FBS
0.000781 µM | 106 | 103
0.00234 µM | 121 | 126
0.00702 µM | 124 | 125
0.0211 µM | 109 | 115
0.0632 µM | 145 | 140
0.19 µM | 138 | 158
0.569 µM | 119 | 146
1.71 µM | 150 | 156
5.12 µM | 151 | 126
15.4 µM | 142 | 146
46.1 µM | 111 | 125

AUC of viability dose-response curve
Conditions | [1] | [2] | [3]
HPLM + 10% dialyzed FBS | 328 | 345 | 453
RPMI 5 mM glucose + 10% FBS | 305 | 356 | 477
RPMI 5 mM glucose + 10% dialyzed FBS | 318 | 374 | 446

NC/1=N/C(=O)N(/C=C1F)[C@H]2CS[C@H](CO)O2
cell viability [%]
Conditions | HPLM + 10% dialyzed FBS | RPMI 5 mM glucose + 10% FBS | RPMI 5 mM glucose + 10% dialyzed FBS
[4], 0.000781 µM | – | 108 | –
[4], 0.00234 µM | – | 121 | –
[4], 0.00702 µM | – | 121 | –
[4], 0.0211 µM | – | 127 | –
[4], 0.0632 µM | – | 133 | –
[4], 0.19 µM | – | 157 | –
[4], 0.569 µM | – | 141 | –
[4], 1.71 µM | – | 139 | –
[4], 5.12 µM | – | 131 | –
[4], 15.4 µM | – | 151 | –
[4], 46.1 µM | – | 141 | –
[6], 0.000781 µM | 83.9 | – | 101
[6], 0.00234 µM | 107 | – | 118
[6], 0.00702 µM | 107 | – | 115
[6], 0.0211 µM | 115 | – | 152
[6], 0.0632 µM | 124 | – | 126
[6], 0.19 µM | 116 | – | 121
[6], 0.569 µM | 123 | – | 144
[6], 1.71 µM | 126 | – | 131
[6], 5.12 µM | 143 | – | 137
[6], 15.4 µM | 142 | – | 144
[6], 46.1 µM | 148 | – | 153

AUC of viability dose-response curve
Conditions | HPLM + 10% dialyzed FBS | RPMI 5 mM glucose + 10% FBS | RPMI 5 mM glucose + 10% dialyzed FBS
[1] | 472 | 449 | 462
[3] | 392 | 442 | 418

CC(=O)OCCN1C(=O)c2c(C)nc3ccc([S+](=O)([O-])N4CCOCC4)cc3c2C1=O
[6], RPMI 5 mM glucose + 10% dialyzed FBS
Conditions | cell viability [%]
0.000781 µM | 112
0.00234 µM | 114
0.00702 µM | 138
0.0211 µM | 131
0.0632 µM | 129
0.19 µM | 148
0.569 µM | 156
1.71 µM | 140
5.12 µM | 152
15.4 µM | 120
46.1 µM | 142

AUC of viability dose-response curve
Conditions | HPLM + 10% dialyzed FBS | RPMI 5 mM glucose + 10% FBS | RPMI 5 mM glucose + 10% dialyzed FBS
[1] | 337 | 299 | 329
[3] | 471 | 445 | 457

CC(C)n1cnc2c(NCCCCCCNC(=O)OC(C)(C)C)nc(NCCO)nc21
AUC of viability dose-response curve
Conditions | [1] | [2] | [3]
HPLM + 10% dialyzed FBS | 443 | 464 | 453
RPMI 5 mM glucose + 10% FBS | 455 | 449 | 462
RPMI 5 mM glucose + 10% dialyzed FBS | 469 | 449 | 454
